# Reference: BindingDB's records for PubMed 38943875 (Kurukshetra University)
# pIC50: −log10 of the molar value.
# Target: T1, Alpha-amylase 1A (Homo sapiens, UniProt P0DUB6)
# T1 sequence (P0DUB6 whole entry): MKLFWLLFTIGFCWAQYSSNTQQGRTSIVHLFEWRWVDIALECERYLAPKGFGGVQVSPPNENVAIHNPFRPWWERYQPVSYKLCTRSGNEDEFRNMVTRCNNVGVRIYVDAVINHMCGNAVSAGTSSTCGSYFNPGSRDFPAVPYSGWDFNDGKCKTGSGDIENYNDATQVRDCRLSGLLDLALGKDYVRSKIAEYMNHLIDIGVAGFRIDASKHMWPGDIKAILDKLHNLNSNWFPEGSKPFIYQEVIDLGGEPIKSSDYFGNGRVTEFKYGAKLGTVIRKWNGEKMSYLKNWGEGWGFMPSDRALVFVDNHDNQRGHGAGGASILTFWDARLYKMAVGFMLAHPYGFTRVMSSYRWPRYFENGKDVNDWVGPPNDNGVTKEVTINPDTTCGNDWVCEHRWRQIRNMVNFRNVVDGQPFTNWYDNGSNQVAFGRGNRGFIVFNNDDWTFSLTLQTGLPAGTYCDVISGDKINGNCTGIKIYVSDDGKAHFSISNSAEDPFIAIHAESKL
# Assay: Inhibition of alpha-amylase (unknown origin) using 1% starch as substrate preincubated for 30 mins followed by substrate addition and measured after 30 mins by colorimetric analysis
row,pIC50,SMILES
1,3.86,C#CCN1C(=O)SC(=CN(C)C)C1=O
2,4.21,Cc1cccc(-n2cc(CN3C(=O)SC(=CN(C)C)C3=O)nn2)c1
3,4.23,CN(C)C=C1SC(=O)N(Cc2cn(-c3ccc([N+](=O)[O-])cc3)nn2)C1=O
4,4.00,CN(C)C=C1SC(=O)N(Cc2cn(-c3ccccc3)nn2)C1=O
5,4.28,COc1ccc(-n2cc(CN3C(=O)SC(=CN(C)C)C3=O)nn2)cc1
6,4.40,CN(C)C=C1SC(=O)N(Cc2cn(-c3ccnc4cc(Cl)ccc34)nn2)C1=O
7,4.03,CN(C)C=C1SC(=O)N(Cc2cn(-c3ccc(F)cc3)nn2)C1=O
8,4.18,CN(C)C=C1SC(=O)N(Cc2cn(-c3cccc(Cl)c3)nn2)C1=O
9,4.01,CN(C)C=C1SC(=O)N(Cc2cn(-c3ccc(Cl)cc3)nn2)C1=O
10,4.24,CCCCn1cc(CN2C(=O)SC(=CN(C)C)C2=O)nn1
11,4.32,CN(C)C=C1SC(=O)N(Cc2cn(-c3ccccc3C(F)(F)F)nn2)C1=O
12,4.26,CN(C)C=C1SC(=O)N(Cc2cn(-c3cccc(C(F)(F)F)c3)nn2)C1=O
13,4.08,CN(C)C=C1SC(=O)N(Cc2cn(-c3ccc(C(F)(F)F)cc3)nn2)C1=O
14,4.04,CN(C)C=C1SC(=O)N(Cc2cn(-c3ccccc3Cl)nn2)C1=O
15,4.16,COc1cccc(-n2cc(CN3C(=O)SC(=CN(C)C)C3=O)nn2)c1
16,4.32,Cc1ccc(-n2cc(CN3C(=O)SC(=CN(C)C)C3=O)nn2)c(C)c1
17,4.03,Cc1ccc(C)c(-n2cc(CN3C(=O)SC(=CN(C)C)C3=O)nn2)c1
18,4.18,Cc1cc(C)cc(-n2cc(CN3C(=O)SC(=CN(C)C)C3=O)nn2)c1
19,4.19,COc1ccccc1-n1cc(CN2C(=O)SC(=CN(C)C)C2=O)nn1
20,4.22,CN(C)C=C1SC(=O)N(Cc2cn(-c3cccc(Cl)c3Cl)nn2)C1=O
21,4.17,CCc1ccc(-n2cc(CN3C(=O)SC(=CN(C)C)C3=O)nn2)cc1
22,4.31,CCc1ccccc1-n1cc(CN2C(=O)SC(=CN(C)C)C2=O)nn1
23,4.27,CC(C)c1ccc(-n2cc(CN3C(=O)SC(=CN(C)C)C3=O)nn2)cc1
24,4.10,CN(C)C=C1SC(=O)N(Cc2cn(Cc3ccccc3)nn2)C1=O
25,4.35,CN(C)C=C1SC(=O)N(Cc2cn(Cc3ccc(Cl)cc3Cl)nn2)C1=O
26,4.11,CN(C)C=C1SC(=O)N(Cc2cn(CC(=O)c3ccc(Br)cc3)nn2)C1=O
